Results: the supplement of paper PMC10307832

Legend:
Test in all cases: relative viability (nuclei count vs DMSO), 5 days (fraction); higher = more cells survive
Dactolisib + Phenformin = compound: Cn1c(=O)n(-c2ccc(C(C)(C)C#N)cc2)c2c3cc(-c4cnc5ccccc5c4)ccc3ncc21 [Dactolisib] + N=C(N)NC(=N)NCCc1ccccc1 [Phenformin] (partner 250 µM)
Method in brief: (§1)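 Medians of duplicate plates are given as relative viability. That measure is the nuclei count in treated wells divided by the count in vehicle wells. Counts were taken on 4× images of lung cancer cell lines in 1536-well plates, 5 days after pin-tool dosing the day after seeding with one drug alone or a fixed anchor-drug dose plus five library-drug doses (not always all listed) in √10 steps.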

AZ505 + Dasatinib = compound: C1CCC(CC1)N(CCNCCC2=C3C(=C(C=C2)O)NC(=O)CO3)C(=O)CCNCCC4=CC(=C(C=C4)Cl)Cl [AZ505] + Cc1nc(Nc2ncc(C(=O)Nc3c(C)cccc3Cl)s2)cc(N2CCN(CCO)CC2)n1 [Dasatinib] (partner 0.075 µM)
Method in brief: as §1

Dactolisib + Foretinib = compound: Cn1c(=O)n(-c2ccc(C(C)(C)C#N)cc2)c2c3cc(-c4cnc5ccccc5c4)ccc3ncc21 [Dactolisib] + COc1cc2c(Oc3ccc(NC(=O)C4(C(=O)Nc5ccc(F)cc5)CC4)cc3F)ccnc2cc1OCCCN1CCOCC1 [Foretinib] (partner 0.25 µM)
Method in brief: as §1

AZ505 + Alpelisib = compound: C1CCC(CC1)N(CCNCCC2=C3C(=C(C=C2)O)NC(=O)CO3)C(=O)CCNCCC4=CC(=C(C=C4)Cl)Cl [AZ505] + Cc1nc(NC(=O)N2CCC[C@H]2C(N)=O)sc1-c1ccnc(C(C)(C)C(F)(F)F)c1 [Alpelisib] (partner 2 µM)
Method in brief: as §1

Cell Line	relative viability (Dactolisib + Phenformin; first compound 0.002 µM)	relative viability (Dactolisib + Phenformin; first compound 0.006325 µM)	relative viability (Dactolisib + Phenformin; first compound 0.02 µM)	relative viability (Dactolisib + Phenformin; first compound 0.06325 µM)	relative viability (Dactolisib + Phenformin; first compound 0.2 µM)	relative viability (AZ505 + Dasatinib; first compound 0.08 µM)	relative viability (AZ505 + Dasatinib; first compound 0.253 µM)	relative viability (AZ505 + Dasatinib; first compound 0.8 µM)	relative viability (AZ505 + Dasatinib; first compound 2.53 µM)	relative viability (AZ505 + Dasatinib; first compound 8 µM)	relative viability (Dactolisib + Foretinib; first compound 0.002 µM)	relative viability (Dactolisib + Foretinib; first compound 0.006325 µM)	relative viability (Dactolisib + Foretinib; first compound 0.02 µM)	relative viability (Dactolisib + Foretinib; first compound 0.06325 µM)	relative viability (Dactolisib + Foretinib; first compound 0.2 µM)	relative viability (AZ505 + Alpelisib; first compound 0.08 µM)	relative viability (AZ505 + Alpelisib; first compound 0.253 µM)	relative viability (AZ505 + Alpelisib; first compound 0.8 µM)	relative viability (AZ505 + Alpelisib; first compound 2.53 µM)	relative viability (AZ505 + Alpelisib; first compound 8 µM)
201T	0.476	0.483	0.446	0.414	0.428	0.589	0.548	0.627	0.601	0.535	0.916	1.11	1.06	0.636	0.491	0.942	1.01	0.973	1.04	1.05
A549	0.183	0.153	0.172	0.103	0.0668						1.03	0.84	0.678	0.202	0.21	0.796	0.666	0.872	0.79	0.795
A-427	0.366	0.335	0.348	0.263	0.244	0.659	0.693	0.622	0.749	0.682	1.2	1.05	0.873	0.56	0.46	1.08	1.11	1.04	1.01	1.08
ABC-1	0.246	0.244	0.24	0.231	0.199	0.539	0.524	0.542	0.58	0.515	1.03	1.11	0.665	0.427	0.5	0.881	1.01	1.1	1.26	1.02
BEN	0.231	0.263	0.245	0.248	0.237	0.359	0.327	0.386	0.355	0.296	0.898	0.632	0.647	0.57	0.422	0.947	1.01	0.959	1.02	1.2
CAL-12T	0.672	0.567	0.508	0.236	0.192	0.466	0.585	0.381	0.413	0.472	1.25	1.09	0.972	0.898	0.241	1.05	1.23	1.23	1.24	1.33
COR-L23	0.508	0.417	0.429	0.229	0.159	0.351	0.427	0.358	0.383	0.475	1.2	0.982	0.948	0.369	0.34	0.532	0.646	0.463	0.624	0.598
COR-L 105	0.494	0.489	0.432	0.256	0.259	0.383	0.352	0.318	0.342	0.367	0.926	1	0.832	0.859	0.417	0.897	1.06	1.02	0.954	0.954
